Experimental findings from patent US9452980B2, “Substituted benzamides” (Hoffmann-La Roche Inc., priority 2009, dated 2016) are described below.

For assay [1], the target named is rat TAAR1 (Rattus norvegicus (Rat), UniProt Q923Y9). Kind of assay: Radioligand binding assay on rat TAAR1. The gist of the method:
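Membranes from HEK293 cells stably expressing rat TAAR1, with Kd checked per batch by saturation. Competition with ³H-(S)-4-[(ethyl-phenyl-amino)-methyl]-4,5-dihydro-oxazol-2-ylamine, compounds 10 pM–10 μM in duplicate, 1 hr at 4 °C. Filtration then scintillation counting; nonspecific binding defined with 10 μM unlabeled ligand.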

Assay [2] addresses mouse TAAR1 (Mus musculus (Mouse), UniProt Q923Y8). Kind of assay: Radioligand binding assay on mouse TAAR1. The gist of the method:
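Displacement of the tritiated oxazol-2-ylamine radioligand was measured by filtration and scintillation counting after 1 h incubation at 4 °C. Test concentrations ran 10 pM–10 μM in duplicate, with 10 μM cold ligand giving nonspecific binding. The receptor source was membranes of a stable mouse TAAR1 HEK293 line.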

Where [3] appears, read: rat TAAR1, HEK-293 membranes, second value of cell mouse/rat, read-out: Ki (μM) rat.
Setting [4] is: mouse TAAR1, HEK-293 membranes, first value of cell mouse/rat, read-out: Ki (μM) mouse.

Molecules are shown by their SMILES. Where a name gives a salt, the structure may show the parent alone. Read-outs that look alike come from different tables or passages of the source.

rat TAAR1, sequence (Q923Y9 whole entry): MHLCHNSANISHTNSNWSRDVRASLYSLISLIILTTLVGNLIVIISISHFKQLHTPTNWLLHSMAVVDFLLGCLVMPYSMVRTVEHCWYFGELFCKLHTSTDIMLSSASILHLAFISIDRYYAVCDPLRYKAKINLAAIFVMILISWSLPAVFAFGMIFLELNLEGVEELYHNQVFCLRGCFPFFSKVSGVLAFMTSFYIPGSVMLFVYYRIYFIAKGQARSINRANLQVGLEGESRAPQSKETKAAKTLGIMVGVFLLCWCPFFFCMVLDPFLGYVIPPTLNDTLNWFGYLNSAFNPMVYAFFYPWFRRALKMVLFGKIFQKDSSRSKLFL
mouse TAAR1, sequence (Q923Y8 whole entry): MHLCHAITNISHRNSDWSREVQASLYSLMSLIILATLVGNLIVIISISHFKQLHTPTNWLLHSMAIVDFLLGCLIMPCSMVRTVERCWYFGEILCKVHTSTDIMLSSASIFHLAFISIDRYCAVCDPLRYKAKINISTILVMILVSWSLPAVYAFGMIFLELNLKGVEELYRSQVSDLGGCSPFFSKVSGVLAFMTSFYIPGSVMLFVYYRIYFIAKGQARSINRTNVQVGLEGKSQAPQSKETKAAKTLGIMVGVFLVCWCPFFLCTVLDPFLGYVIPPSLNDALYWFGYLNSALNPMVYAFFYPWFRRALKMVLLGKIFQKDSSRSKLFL

Take `O=C(Nc1ccc(C2CNCCO2)cc1)c1ccc(N2CCOCC2)nc1` (racemic) [Example 241, (RS)—N-(4-(Morpholin-2-yl)phenyl)-6-morpholinonicotinamide hydrochloride]: the Ki in assay [1] (setting [3]) was found to be 0.116 µM; in assay [2] (setting [4]), 1.55 µM.

Consider `O=C(Nc1ccc(C2CCNC2)cc1)c1ccc(-n2cccn2)nc1` (racemic) [Example 73, (RS)-6-Pyrazol-1-yl-N-(4-pyrrolidin-3-yl-phenyl)-nicotinamide hydrochloride], for which the figures for the Ki in assay [1] (setting [3]) and in assay [2] (setting [4]) were 0.0257 µM and 0.0056 µM, respectively.

On to `O=C(Nc1ccc(C2CCNC2)cc1)c1ccccc1` (racemic) [Example 13, (RS)—N-(4-Pyrrolidin-3-yl-phenyl)-benzamide hydrochloride], for which the Ki in assay [1] (setting [3]) came to 0.0995 µM; in assay [2] (setting [4]), 0.008 µM.

On to `O=C(Nc1ccc(C2CCNC2)cc1)c1nc2ccccc2[nH]1` (racemic) [Example 76, (RS)-1H-Benzoimidazole-2-carboxylic acid (4-pyrrolidin-3-yl-phenyl)-amide hydrochloride], for which the Ki in assay [1] (setting [3]) was 0.296 µM; in assay [2] (setting [4]), 0.136 µM.

Take `O=C(Nc1ccc(C2CNCCO2)cc1)c1ccc(C(F)(F)F)cn1` (racemic) [Example 141, (RS)-5-Trifluoromethyl-pyridine-2-carboxylic acid (4-morpholin-2-yl-phenyl)-amide hydrochloride]: the values for the Ki in assay [1] (setting [3]) and in assay [2] (setting [4]) were 0.0024 µM and 0.0201 µM, respectively.

Regarding `O=C(Nc1ccc(C2CCNC2)cc1)Oc1ccc(F)cc1` (racemic) [Example 15, (RS)-(4-Pyrrolidin-3-yl-phenyl)-carbamic acid 4-fluoro-phenyl ester hydrochloride], the inhibition constant (Ki) was 0.0081 µM in assay [1] and 0.0021 µM in assay [2].

`O=C(Nc1ccc(C2CCCNC2)cc1)c1cnc(Cl)cn1` (racemic) [Example 160, (RS)-5-Chloro-pyrazine-2-carboxylic acid (4-piperidin-3-yl-phenyl)-amide hydrochloride]: the figures for the Ki in assay [1] (setting [3]) and in assay [2] (setting [4]) were 0.0046 µM and 0.0851 µM, respectively.

Regarding `O=C(Nc1ccc(C2CNCCO2)cc1)c1ccc(C(F)(F)F)nc1` (racemic) [Example 272, (RS)—N-(4-(Morpholin-2-yl)phenyl)-6-(trifluoromethyl)nicotinamide hydrochloride], the Ki in assay [1] (read-out: Ki (μM) rat) was determined as 0.0169 µM; in assay [2] (setting [4]), 0.0214 µM.

Consider `O=C(Nc1ccc(C2CNCCO2)cc1)c1cncc(Cl)c1` (racemic) [Example 210, (RS)-5-chloro-N-(4-(morpholin-2-yl)phenyl)nicotinamide hydrochloride], for which the Ki stood at 0.0062 µM in assay [1] (setting [3]) and 0.0436 µM in assay [2] (setting [4]).

In general, Ki refers to a dissociation constant, usually derived from enzyme kinetics or from competition with a known ligand.
